# PubChem BioAssay (NCI)
#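 GI50 marks 50% less growth. TGI is the concentration that stops growth completely.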
# Legend:
# Assay in all cases: DTP human tumour cell line panel, 384-well format
# SR leukemia = system: SR leukemia
# A498 renal = system: A498 renal
# MOLT-4 leukemia = system: MOLT-4 leukemia
# NCI/ADR-RES ovarian = system: NCI/ADR-RES ovarian
# SK-MEL-2 melanoma = system: SK-MEL-2 melanoma
# HL-60(TB) leukemia = system: HL-60(TB) leukemia
# ACHN renal = system: ACHN renal
# UO-31 renal = system: UO-31 renal
# SF-295 CNS = system: SF-295 CNS
# HCT-15 colon = system: HCT-15 colon
# MDA-MB-468 breast = system: MDA-MB-468 breast
# NCI-H23 lung = system: NCI-H23 lung
# 786-0 renal = system: 786-0 renal
# UACC-62 melanoma = system: UACC-62 melanoma
# TK-10 renal = system: TK-10 renal
# MCF7 breast = system: MCF7 breast
# RPMI-8226 leukemia = system: RPMI-8226 leukemia
# T-47D breast = system: T-47D breast
# U251 glioblastoma = system: U251 glioblastoma
# MDA-MB-435 melanoma = system: MDA-MB-435 melanoma
# HOP-92 NSCLC = system: HOP-92 NSCLC
# SNB-75 CNS = system: SNB-75 CNS
# NCI-H460 NSCLC = system: NCI-H460 NSCLC
# KM12 colon = system: KM12 colon
# SF-268 CNS = system: SF-268 CNS
# OVCAR-3 ovarian = system: OVCAR-3 ovarian
# CAKI-1 renal = system: CAKI-1 renal
# HOP-62 NSCLC = system: HOP-62 NSCLC
# K-562 leukemia = system: K-562 leukemia
# SK-MEL-5 melanoma = system: SK-MEL-5 melanoma
# SK-OV-3 ovarian = system: SK-OV-3 ovarian
# MDA-MB-231 breast = system: MDA-MB-231 breast
# SF-539 CNS = system: SF-539 CNS
# SK-MEL-28 melanoma = system: SK-MEL-28 melanoma
# UACC-257 melanoma = system: UACC-257 melanoma
# A549 NSCLC = system: A549 NSCLC
# NCI-H226 lung = system: NCI-H226 lung
# EKVX NSCLC = system: EKVX NSCLC
# NCI-H322M lung = system: NCI-H322M lung
# HS 578T breast = system: HS 578T breast
# OVCAR-4 ovarian = system: OVCAR-4 ovarian
# SN12C renal = system: SN12C renal
# OVCAR-5 ovarian = system: OVCAR-5 ovarian
# IGROV1 ovarian = system: IGROV1 ovarian
# DU-145 prostate = system: DU-145 prostate
# HCT-116 colon = system: HCT-116 colon
# RXF 393 renal = system: RXF 393 renal
# COLO 205 colon = system: COLO 205 colon
# BT-549 breast = system: BT-549 breast
# HT29 colon = system: HT29 colon
# MALME-3M melanoma = system: MALME-3M melanoma
# LOX IMVI melanoma = system: LOX IMVI melanoma
# HCC-2998 colon = system: HCC-2998 colon
# PC-3 prostate = system: PC-3 prostate
# NCI-H522 lung = system: NCI-H522 lung
# OVCAR-8 ovarian = system: OVCAR-8 ovarian
# SNB-19 CNS = system: SNB-19 CNS
# M14 melanoma = system: M14 melanoma
# SW-620 colon = system: SW-620 colon
# CCRF-CEM leukemia = system: CCRF-CEM leukemia
compound,measurement,setting,value
Cc1c(-c2c(-c3ccc(F)o3)sc3ncnc(O[C@H](Cc4ccccc4OCc4ccnn4CC(F)(F)F)C(=O)O)c23)ccc(OCCN2CCN(C)CC2)c1Cl,GI50,SR leukemia,< 10 nM
same,TGI,SR leukemia,< 0.01 µM
same,GI50,A498 renal,3.34 µM
same,TGI,A498 renal,9.93 µM
same,GI50,MOLT-4 leukemia,< 0.01 µM
same,TGI,MOLT-4 leukemia,< 0.01 µM
same,GI50,NCI/ADR-RES ovarian,27.4 µM
same,TGI,NCI/ADR-RES ovarian,95.7 µM
same,GI50,SK-MEL-2 melanoma,< 10 nM
same,TGI,SK-MEL-2 melanoma,< 10 nM
same,GI50,HL-60(TB) leukemia,< 0.01 µM
same,TGI,HL-60(TB) leukemia,< 0.01 µM
same,GI50,ACHN renal,6.94 µM
same,TGI,ACHN renal,18.8 µM
same,GI50,UO-31 renal,15.6 µM
same,TGI,UO-31 renal,29.1 µM
same,GI50,SF-295 CNS,1.66 µM
same,TGI,SF-295 CNS,3.06 µM
same,GI50,HCT-15 colon,10.4 µM
same,TGI,HCT-15 colon,22.2 µM
same,GI50,MDA-MB-468 breast,< 0.01 µM
same,TGI,MDA-MB-468 breast,< 0.01 µM
same,GI50,NCI-H23 lung,0.0113 µM
same,TGI,NCI-H23 lung,31.8 nM
same,GI50,786-0 renal,2.11 µM
same,TGI,786-0 renal,4.5 µM
same,GI50,UACC-62 melanoma,< 10 nM
same,TGI,UACC-62 melanoma,10.2 nM
same,GI50,TK-10 renal,3.27 µM
same,TGI,TK-10 renal,8.77 µM
same,GI50,MCF7 breast,< 0.01 µM
same,TGI,MCF7 breast,1180 nM
same,GI50,RPMI-8226 leukemia,< 0.01 µM
same,TGI,RPMI-8226 leukemia,< 0.01 µM
Cc1ccccc1N=Nc1ccc(NC(=O)c2ccnn2C)c(C)c1,GI50,T-47D breast,8.3 µM
same,TGI,T-47D breast,> 100 µM
same,GI50,SR leukemia,2000 nM
same,TGI,SR leukemia,7.31 µM
same,GI50,U251 glioblastoma,18 µM
same,TGI,U251 glioblastoma,73.1 µM
same,GI50,MDA-MB-435 melanoma,> 100 µM
same,TGI,MDA-MB-435 melanoma,> 100 µM
same,GI50,A498 renal,90.4 µM
same,TGI,A498 renal,> 100 µM
same,GI50,HOP-92 NSCLC,34.8 µM
same,TGI,HOP-92 NSCLC,> 100 µM
same,GI50,SNB-75 CNS,25.8 µM
same,TGI,SNB-75 CNS,99.7 µM
same,GI50,NCI-H460 NSCLC,6.69 µM
same,TGI,NCI-H460 NSCLC,27.3 µM
same,GI50,KM12 colon,> 100 µM
same,TGI,KM12 colon,> 100 µM
same,GI50,SF-268 CNS,96.7 µM
same,TGI,SF-268 CNS,> 100 µM
same,GI50,OVCAR-3 ovarian,> 100 µM
same,TGI,OVCAR-3 ovarian,> 100 µM
same,GI50,CAKI-1 renal,> 100 µM
same,TGI,CAKI-1 renal,> 100 µM
same,GI50,HOP-62 NSCLC,37.2 µM
same,TGI,HOP-62 NSCLC,> 100 µM
same,GI50,K-562 leukemia,7.47 µM
same,TGI,K-562 leukemia,> 100 µM
same,GI50,SK-MEL-5 melanoma,11.2 µM
same,TGI,SK-MEL-5 melanoma,87.1 µM
same,GI50,SK-OV-3 ovarian,> 100 µM
same,TGI,SK-OV-3 ovarian,> 100 µM
same,GI50,MDA-MB-231 breast,92.8 µM
same,TGI,MDA-MB-231 breast,> 100 µM
same,GI50,SF-539 CNS,> 100 µM
same,TGI,SF-539 CNS,> 100 µM
same,GI50,SK-MEL-28 melanoma,> 100 µM
same,TGI,SK-MEL-28 melanoma,> 100 µM
same,GI50,UACC-257 melanoma,40.2 µM
same,TGI,UACC-257 melanoma,> 100 µM
same,GI50,A549 NSCLC,> 100 µM
same,TGI,A549 NSCLC,> 100 µM
same,GI50,NCI-H226 lung,31.5 µM
same,TGI,NCI-H226 lung,> 100 µM
same,GI50,EKVX NSCLC,23.2 µM
same,TGI,EKVX NSCLC,> 100 µM
same,GI50,NCI-H322M lung,51.9 µM
same,TGI,NCI-H322M lung,> 100 µM
same,GI50,MOLT-4 leukemia,30.4 µM
same,TGI,MOLT-4 leukemia,> 100 µM
same,GI50,NCI/ADR-RES ovarian,6.99 µM
same,TGI,NCI/ADR-RES ovarian,> 100 µM
same,GI50,HS 578T breast,27.8 µM
same,TGI,HS 578T breast,> 100 µM
same,GI50,OVCAR-4 ovarian,47.7 µM
same,TGI,OVCAR-4 ovarian,> 100 µM
same,GI50,SN12C renal,> 100 µM
same,TGI,SN12C renal,> 100 µM
same,GI50,HL-60(TB) leukemia,34.4 µM
same,TGI,HL-60(TB) leukemia,> 100 µM
same,GI50,ACHN renal,95.2 µM
same,TGI,ACHN renal,> 100 µM
same,GI50,UO-31 renal,> 100 µM
same,TGI,UO-31 renal,> 100 µM
same,GI50,OVCAR-5 ovarian,> 100 µM
same,TGI,OVCAR-5 ovarian,> 100 µM
same,GI50,SF-295 CNS,27.1 µM
same,TGI,SF-295 CNS,> 100 µM
same,GI50,IGROV1 ovarian,> 100 µM
same,TGI,IGROV1 ovarian,> 100 µM
same,GI50,DU-145 prostate,> 100 µM
same,TGI,DU-145 prostate,> 100 µM
same,GI50,HCT-116 colon,13.1 µM
same,TGI,HCT-116 colon,> 100 µM
same,GI50,RXF 393 renal,5.29 µM
same,TGI,RXF 393 renal,23.7 µM
same,GI50,COLO 205 colon,> 100 µM
same,TGI,COLO 205 colon,> 100 µM
same,GI50,BT-549 breast,48.6 µM
same,TGI,BT-549 breast,> 100 µM
same,GI50,HT29 colon,> 100 µM
same,TGI,HT29 colon,> 100 µM
same,GI50,MALME-3M melanoma,> 100 µM
same,TGI,MALME-3M melanoma,> 100 µM
same,GI50,HCT-15 colon,54.4 µM
same,TGI,HCT-15 colon,> 100 µM
same,GI50,LOX IMVI melanoma,39.4 µM
same,TGI,LOX IMVI melanoma,> 100 µM
same,GI50,HCC-2998 colon,> 100 µM
same,TGI,HCC-2998 colon,> 100 µM
same,GI50,PC-3 prostate,> 100 µM
same,TGI,PC-3 prostate,> 100 µM
same,GI50,MDA-MB-468 breast,3.87 µM
same,TGI,MDA-MB-468 breast,59.4 µM
same,GI50,NCI-H23 lung,13.6 µM
same,TGI,NCI-H23 lung,> 100000 nM
same,GI50,NCI-H522 lung,15.4 µM
same,TGI,NCI-H522 lung,93.1 µM
same,GI50,OVCAR-8 ovarian,46.4 µM
same,TGI,OVCAR-8 ovarian,> 100 µM
same,GI50,786-0 renal,68.8 µM
same,TGI,786-0 renal,> 100 µM
same,GI50,SNB-19 CNS,> 100 µM
same,TGI,SNB-19 CNS,> 100 µM
same,GI50,TK-10 renal,63.7 µM
same,TGI,TK-10 renal,> 100 µM
same,GI50,MCF7 breast,36.8 µM
same,TGI,MCF7 breast,> 100000 nM
same,GI50,RPMI-8226 leukemia,5.58 µM
same,TGI,RPMI-8226 leukemia,> 100 µM
same,GI50,M14 melanoma,> 100 µM
same,TGI,M14 melanoma,> 100 µM
same,GI50,SW-620 colon,> 100 µM
same,TGI,SW-620 colon,> 100 µM
same,GI50,CCRF-CEM leukemia,13.8 µM
same,TGI,CCRF-CEM leukemia,> 100 µM
